Where two headings read alike, the source gives them in different places.
Assays:
[1] = target: T1, RORγ ligand binding domain (LBD) (Homo sapiens, UniProt P51449); assay: TR-FRET Activity Assay (ligand sensing, RORγ-LBD / coactivator peptide interaction, LANCE); type: biochemical
T1 construct: made in house; host or cells: E. coli BL-21 (BL3), vector pDEST15
T1 sequence (P51449 269-508 limits assumed): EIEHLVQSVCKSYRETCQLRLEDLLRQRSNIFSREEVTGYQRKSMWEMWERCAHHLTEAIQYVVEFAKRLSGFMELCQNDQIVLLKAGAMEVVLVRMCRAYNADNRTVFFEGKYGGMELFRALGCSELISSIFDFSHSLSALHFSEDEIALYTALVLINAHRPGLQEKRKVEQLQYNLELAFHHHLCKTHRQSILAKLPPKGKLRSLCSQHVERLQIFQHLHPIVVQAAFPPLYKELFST

RORγ = target: T2, RORγ (UniProt P51449); assay: RORγ Gal4 Reporter Gene Assay in 293T cells (firefly and renilla luciferase); type: cell-based, human
T2 sequence (P51449 1-518): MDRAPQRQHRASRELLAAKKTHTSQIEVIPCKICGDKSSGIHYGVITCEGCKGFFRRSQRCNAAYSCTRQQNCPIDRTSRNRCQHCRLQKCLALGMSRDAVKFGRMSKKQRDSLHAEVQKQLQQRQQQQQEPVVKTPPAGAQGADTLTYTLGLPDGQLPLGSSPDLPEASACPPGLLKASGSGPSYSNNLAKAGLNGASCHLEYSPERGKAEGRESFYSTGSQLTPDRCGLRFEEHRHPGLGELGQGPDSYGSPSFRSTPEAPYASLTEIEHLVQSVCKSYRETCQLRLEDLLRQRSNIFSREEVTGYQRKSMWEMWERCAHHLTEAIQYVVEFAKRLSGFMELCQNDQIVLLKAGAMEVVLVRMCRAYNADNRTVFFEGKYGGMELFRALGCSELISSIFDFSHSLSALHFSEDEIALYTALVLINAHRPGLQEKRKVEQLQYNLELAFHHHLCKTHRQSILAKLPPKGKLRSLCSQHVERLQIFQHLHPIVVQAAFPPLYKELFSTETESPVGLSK

[2] = first value of the cell FRET/FF/REN, TR-FRET activity assay, read-out: pIC50 (FRET) (converted)
[3] = second value of the cell, Gal4 reporter gene assay in 293T cells, firefly luciferase
[4] = third value of the cell, Gal4 reporter gene assay in 293T cells, renilla normalised luciferase

| SMILES | IC50 [1] [nM] | pIC50 (FF) (RORγ) | pIC50 (REN) (RORγ) | IC50 [1, 2] [nM] | pIC50 (FF) (RORγ; [3]) | pIC50 (REN) (RORγ; [4]) |
| --- | --- | --- | --- | --- | --- | --- |
| Cc1c(C(=O)NC2CCOCC2)cc(-c2ccc(S(=O)(=O)NC(C)(C)C)c(C(F)(F)F)c2)n1CC1CCC(F)CC1 (stereo not drawn) [17/257] | 501 | 6.3/7.4/7.6 | 6.3/7.4/7.6 | – | – | – |
| Cc1c(C(=O)NC2COC2)cc(-c2cc(OCC(C)(C)C)nc(C(C)(C)C)c2)n1CC1CCCCC1 [1/120] | 126 | 6.9/7.1/7.3 | 6.9/7.1/7.3 | – | – | – |
| Cc1c(C(=O)NC2COC2)cc(-c2cc(C3(C)CC3)c3c(c2)C2(CCO3)CC2)n1CC1CCCCC1 [1/42] | – | – | – | 251 | 7.5 | 7.6 |
| Cc1c(C(=O)N2CCC(C)(O)CC2)cc(-c2cc(C(C)(C)C)cc(C(C)(C)C)c2)n1CC1CCCCC1 [1/37] | – | – | – | 316 | 6.8 | 6.8 |
| Cc1c(C(=O)N[C@H]2C[C@H](C(=O)O)C2)cc(-c2ccc(S(=O)(=O)NC(C)(C)C)c3c2CCCC3)n1CC1CCCCC1 [17/281] | – | – | – | 1000 | 7.7 | 7.7 |
| Cc1c(C(=O)NC2CCOCC2)cc(-c2cnc(S(=O)(=O)NC(C)(C)C)c(C(F)(F)F)c2)n1CC1CCCCC1 [17/190] | – | – | – | 1580 | 6.5 | 6.6 |
| Cc1c(C(=O)NC2COC2)cc(-c2cc(C(C)(C)C)nc(C(F)(F)F)c2)n1CC1CCCCC1 [9/15] | 316 | 6.5/6.5/6.5 | 6.5/6.5/6.5 | – | – | – |
| Cc1c(C(=O)NC2CCOCC2)cc(-c2ccc(S(=O)(=O)N[C@@H](C)C(F)(F)F)c(C(F)(F)F)c2)n1CC1CCCCC1 [17/141] | – | – | – | 316 | 8.3 | 8.5 |
| Cc1c(C(=O)N[C@H]2C[C@H](C(=O)O)C2)cc(-c2cc(Cl)cc(C3(C)CC3)c2)n1CC1CCCCC1 [17/299] | – | – | – | 5010 | 7.1 | 7.5 |
| Cc1c(C(=O)NCC2(C)COC2)cc(-c2cc(C(C)(C)C)c3c(c2)C2(CCO3)CC2)n1CC1CCCCC1 [1/101] | – | – | – | 251 | 7.2 | 7.2 |
| COC(C)(C)CNC(=O)c1cc(-c2cc(C(C)(C)C)c3c(c2)C2(CCO3)CC2)n(CC2CCCCC2)c1C [1/97] | 251 | 6.6/7.1/7.0 | 6.6/7.1/7.0 | – | – | – |
| Cc1c(C(=O)N[C@H]2C[C@H](C(=O)O)C2)cc(-c2ccc(S(=O)(=O)NC(C)(C)C)c(Cl)c2Cl)n1CC1CCCCC1 [17/277] | – | – | – | 398 | 7.2 | 7.2 |
| CC(=O)N1CC(NC(=O)c2cc(-c3cc(C(C)(C)C)cc(C(C)(C)C)c3)n(CC3CCCCC3)c2C)C1 [Example 5, N-(1-Acetylazetidin-3-yl)-1-(cyclohexylmethyl)-5-(3,5-di-tert-butylphenyl)-2-methyl-1H-pyrrole-3-carboxamide] | – | – | – | 501 | 7.0 | 7.2 |
| Cc1c(C(=O)NCC(C)(C)C(=O)NCCC(=O)O)cc(-c2cc(C(C)(C)C)c3c(c2)C2(CCO3)CC2)n1CC1CCCCC1 [11/3] | – | – | – | 1000 | 6.5 | 6.5 |
| Cc1c(C(=O)NCC(C)(C)C(=O)O)cc(-c2cc(C(=O)NC(C)(C)C)cc(C(C)(C)C)c2)n1CC1CCCCC1 [17/329] | – | – | – | 2510 | 6.8 | 6.9 |
| Cc1c(C(=O)NC2COC2)cc(-c2cc(C(C)(C)C)cc(C(C)(C)C)c2)n1CCC1CCCC1 [1/116] | – | – | – | 126 | 6.9/6.9/6.9 | 6.9/6.9/6.9 |
| CC(C)(C)NS(=O)(=O)c1ccc(-c2cc(C(=O)NC3CCOCC3)c(F)n2CC2CCCCC2)cc1C(F)(F)F [20/1] | – | – | – | 251 | 7.1 | 7.3 |
| Cc1c(C(=O)NCC2(C)COC2)cc(-c2cc(C(C)(C)C)cc(C(C)(C)C)c2)n1CC1CCCCC1 [1/2] | 126 | 6.9/7.5/7.4 | 6.9/7.5/7.4 | – | – | – |
| Cc1c(C(=O)NCCc2noc(=O)[nH]2)cc(-c2ccc(S(=O)(=O)NC(C)(C)C)c(C(F)(F)F)c2)n1CC1CCCCC1 [17/332] | – | – | – | 200 | 6.4 | 6.4 |
| Cc1c(C(=O)NCC2(O)CCOCC2)cc(-c2cc(C(C)(C)O)cc(C3(C)CC3)c2)n1CC1CCCCC1 [17/314] | – | – | – | 1000 | 7.2 | 7.1 |

| SMILES | IC50 [1] [nM] | pIC50 (FF) (RORγ) | pIC50 (REN) (RORγ) | IC50 [1, 2] [nM] | pIC50 (FF) (RORγ; [3]) | pIC50 (REN) (RORγ; [4]) |
| --- | --- | --- | --- | --- | --- | --- |
| Cc1c(C(=O)NC2(C#N)CCOCC2)cc(-c2ccc(S(=O)(=O)NC(C)(C)C)c(C(C)(C)C)c2)n1CC1CCCCC1 [17/208] | 398 | 6.4/6.6/6.6 | 6.4/6.6/6.6 | – | – | – |
| Cc1c(C(=O)NCCS(C)(=O)=O)cc(-c2ccc(S(=O)(=O)NC(C)(C)C)c(C(C)(C)C)c2)n1CC1CCCCC1 [1/130] | – | – | – | 794 | 6.8 | 6.8 |
| Cc1c(C(=O)NC2CCOCC2)cc(-c2ccc(C(=O)NCC(F)(F)F)c(C(C)(C)C)c2)n1CC1CCCCC1 [6/2] | – | – | – | 3160 | 6.5 | 6.4 |
| Cc1c(C(=O)NS(C)(=O)=O)cc(-c2cc(C(C)(C)C)cc(C(C)(C)C)c2)n1CC1CCCCC1 [1/51] | – | – | – | 2510 | 5.9 | 6.1 |
| Cc1c(C(=O)NC2CCOCC2)cc(-c2ccc(S(=O)(=O)N3CCCC3(C)C)c(C(F)(F)F)c2)n1CC1CCCCC1 [17/84] | – | – | – | > 20000 | 7.2 | 7.2 |
| Cc1c(C(=O)NCC(C)(C)c2nn[nH]n2)cc(-c2cc(C(C)(C)C)cc(C3(C)CC3)c2)n1CC1CCCCC1 [17/77] | – | – | – | 794 | 8.0 | 8.1 |
| Cc1c(C(=O)NCCOCCO)cc(-c2cc(C(C)(C)C)cc(C(C)(C)C)c2)n1CC1CCCCC1 [1/63] | 631 | 6.2/6.7/6.7 | 6.2/6.7/6.7 | – | – | – |
| Cc1c(C(=O)N2CC3(CCS(=O)(=O)CC3)C2)cc(-c2ccc(S(=O)(=O)NC(C)(C)C)c3ccccc23)n1CC1CCCCC1 [17/270] | – | – | – | 631 | 7.8 | 8.0 |
| Cc1c(C(=O)NCC(C)(C)O)cc(-c2ccc(S(=O)(=O)NC(C)(C)C)c(C(C)(C)C)c2)n1CC1CCCCC1 [9/8] | – | – | – | 631 | 7.0 | 7.1 |
| Cc1c(C(=O)NC2CCOCC2)cc(-c2ccc(C(C)(C)C(=O)NC(C)(C)C)c(C(F)(F)F)c2)n1CC1CCCCC1 [17/132] | – | – | – | 3980 | 6.3 | 6.2 |
| Cc1c(C(=O)NCC(C)(C)NC(=O)CCC(=O)O)cc(-c2cc(C(C)(C)C)c3c(c2)C2(CCO3)CC2)n1CC1CCCCC1 [17/29] | – | – | – | 1260 | 6.8 | 6.7 |
| Cc1c(C(=O)NCCN2CCOCC2)cc(-c2ccc(S(=O)(=O)NC(C)(C)C)c3ccccc23)n1CC1CCCCC1 [17/269] | 1000 | 6.0/6.9/7.0 | 6.0/6.9/7.0 | – | – | – |
| Cc1c(C(=O)N2CC(N3CCOCC3)C2)cc(-c2cc(C(C)(C)C)cc(C3(C)CC3)c2)n1CC1CCCCC1 [17/344] | – | – | – | 631 | 7.3 | 7.5 |
| Cc1c(C(=O)NC2C[S+]([O-])C2)cc(-c2cc(C(C)(C)C)cc(C(C)(C)C)c2)n1CC1CCCCC1 (stereo not drawn) [Example 2, 1-(Cyclohexylmethyl)-5-(3,5-di-tert-butylphenyl)-2-methyl-N-(1-oxidothietan-3-yl)-1H-pyrrole-3-carboxamide] | – | – | – | 251 | 7.0 | 7.0 |
| Cc1c(C(=O)NCCC(C)(C)C(N)=O)cc(-c2cc(C(C)(C)C)cc(C3(C)CC3)c2)n1CC1CCCCC1 [17/74] | 501 | 6.3/7.3/7.2 | 6.3/7.3/7.2 | – | – | – |
| Cc1c(C(=O)NC2CCOCC2)cc(-c2ccc(CN3CCOCC3(C)C)c(C(F)(F)F)c2)n1CC1CCCCC1 [Example 34, 1-(Cyclohexylmethyl)-5-(4-((3,3-dimethylmorpholino)methyl)-3-(trifluoromethyl)phenyl)-2-methyl-N-(tetrahydro-2H-pyran-4-yl)-1H-pyrrole-3-carboxamide] | – | – | – | 398 | 6.8 | 7.1 |
| Cc1c(C(=O)NCC(C)(C)O)cc(-c2ccc(S(=O)(=O)N(C)C(C)(C)C)c(C(C)(C)C)c2)n1CC1CCCCC1 [9/9] | – | – | – | 501 | 7.2 | 7.3 |
| Cc1c(C(=O)NC2COC2)cc(-c2ccc(C(=O)N(C)C(C)(C)C)c(C(C)(C)C)c2)n1CC1CCCCC1 [1/31] | – | – | – | 2000 | 6.4 | 6.4 |
| Cc1c(C(=O)NC2CCOCC2)cc(-c2ccc(S(=O)(=O)NC(C)(C)C)c3c2CCCC3)n1CC1CCCCC1 [17/280] | – | – | – | 1000 | 8.1 | 8.1 |

Source: US9815851B2, “Pyrrolo carboxamides as modulators of orphan nuclear receptor RAR-related orphan receptor-gamma (RORγ, NR1F3) activity and for the treatment of chronic inflammatory and autoimmune diseases” (PHENEX PHARMACEUTICALS AG, priority 2011, dated 2017)
